Assay results from US9708314B2, “Heterocyclic amide compound” (NISSAN CHEMICAL INDUSTRIES, LTD., priority 2013, dated 2017).

What was measured:
Assay type in all cases: in vivo
[1] = test system: transplanted Oryza sativa; assay: Test Example 1: effect on crop, application before weed generation in submerged conditions; details: Application herbicide amount 320 g/ha; Seventeenth Table
In short: (§1)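 Alluvial soil in Wagner pots flooded to 4 cm water depth; weed seeds sown and 2.5 leaf stage rice seedlings transplanted. Emulsion diluted in water applied to water surface on sowing day at stated g/ha. Greenhouse 25° C. to 30° C.; effects scored 0–5 by herbicidal ratio after three weeks.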

Brassica campestris L. = assay: Test Example 4: effect on crop by application to foliage (diluvial soil, plastic box); details: application to foliage, application herbicide amount 320 g/ha
In short: (§2)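 Scores run from 0 (herbicidal ratio ≤5%) to 5 (≥90%, almost fully withered) and were assessed three weeks after foliar spraying. Seedlings had been raised for 14 days at 25-30° C in sterilized diluvial soil before treatment, with the emulsion diluted in water to the stated g/ha dose.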

Glycine max = assay: as above; details: application to foliage, application herbicide amount 320 g/ha
In short: as §2

Zea mays = assay: as above; details: application to foliage, application herbicide amount 320 g/ha
In short: as §2

[2] = test system: Beta vulgaris ssp. vulgaris; assay: as above; details: application to foliage, application herbicide amount 320 g/ha
In short: as §2

Triticum aestivum = assay: as above; details: application to foliage, application herbicide amount 320 g/ha
In short: as §2

[3] = test system: directly sowed Oryza sativa; assay: as above; details: application to foliage, application herbicide amount 320 g/ha
In short: as §2

Galium spurium = assay: Test Example 4: herbicidal effect by application to foliage (diluvial soil, plastic box); details: application to foliage, application herbicide amount 320 g/ha
In short: as §2

Alopecurus myosuroides = assay: as above; details: application to foliage, application herbicide amount 320 g/ha
In short: as §2

Abutilon theophrasti = assay: as above; details: application to foliage, application herbicide amount 320 g/ha
In short: as §2

Setaria viridis = assay: as above; details: application to foliage, application herbicide amount 320 g/ha
In short: as §2

[4] = test system: Echinochloa crus-galli var. crus-galli; assay: as above; details: application to foliage, application herbicide amount 320 g/ha
In short: as §2

Veronica persica = assay: as above; details: application to foliage, application herbicide amount 320 g/ha
In short: as §2

Lolium multiflorum Lam. = assay: as above; details: application to foliage, application herbicide amount 320 g/ha
In short: as §2

Stellaria media = assay: as above; details: application to foliage, application herbicide amount 320 g/ha
In short: as §2

Amaranthus retroflexus = assay: as above; details: application to foliage, application herbicide amount 320 g/ha
In short: as §2

Avena fatua = assay: as above; details: application to foliage, application herbicide amount 320 g/ha
In short: as §2

Chenopodium album = assay: as above; details: application to foliage, application herbicide amount 320 g/ha
In short: as §2

Apera spica-venti. = assay: as above; details: application to foliage, application herbicide amount 320 g/ha
In short: as §2

Digitaria ciliaris = assay: as above; details: application to foliage, application herbicide amount 320 g/ha
In short: as §2

[5] = test system: Echinochloa oryzacola Vasing.; assay: Test Example 1: herbicidal activity, application before weed generation in submerged conditions; details: Application herbicide amount 320 g/ha; Seventeenth Table
In short: as §1

Monochoria vaginalis = assay: as above; details: Application herbicide amount 320 g/ha; Seventeenth Table
In short: as §1

Scirpus juncoides = assay: as above; details: Application herbicide amount 320 g/ha; Seventeenth Table
In short: as §1

| Compound | a: transplanted Oryza sativa (effect on crop grade) [1] | g: effect on crop, Brassica campestris L. (Brassica campestris L.) | d: effect on crop, Glycine max (Glycine max) | c: effect on crop, Zea mays (Zea mays) | f: effect on crop, Beta vulgaris ssp. vulgaris [2] | e: effect on crop, Triticum aestivum (Triticum aestivum) | b: effect on crop, directly sowed Oryza sativa [3] | Q: herbicidal effect on Galium spurium (Galium spurium) | J: herbicidal effect on Alopecurus myosuroides (Alopecurus myosuroides) | M: herbicidal effect on Abutilon theophrasti (Abutilon theophrasti) | G: herbicidal effect on Setaria viridis (Setaria viridis) | H: herbicidal effect on Echinochloa crus-galli var. crus-galli [4] | R: herbicidal effect on Veronica persica (Veronica persica) | K: herbicidal effect on Lolium multiflorum Lam. (Lolium multiflorum Lam.) | P: herbicidal effect on Stellaria media (Stellaria media) | N: herbicidal effect on Amaranthus retroflexus (Amaranthus retroflexus) | I: herbicidal effect on Avena fatua (Avena fatua) | O: herbicidal effect on Chenopodium album (Chenopodium album) | L: herbicidal effect on Apera spica-venti. (Apera spica-venti.) | F: herbicidal effect on Digitaria ciliaris (Digitaria ciliaris) | further results |
| --- | --- | --- | --- | --- | --- | --- | --- | --- | --- | --- | --- | --- | --- | --- | --- | --- | --- | --- | --- | --- | --- |
| COCc1nnc2c(C(=O)Nc3nnnn3C)ccc(C(F)(F)F)n12 [2-010, 3-(Methoxymethyl)-N-(1-methyl-1H-tetrazol-5-yl)-5-(trifluoromethyl)-[1,2,4]triazol o[4,3-a]pyridine-8-carboxamide] | 4 (Herbicidal ratio of 70% or more and less than 90%) | 5 (Herbicidal ratio of 90% or more (almost completely withered)) | 4 (Herbicidal ratio of 70% or more and less than 90%) | 3 (Herbicidal ratio of 40% or more and less than 70%) | 5 (Herbicidal ratio of 90% or more (almost completely withered)) | 3 (Herbicidal ratio of 40% or more and less than 70%) | 5 (Herbicidal ratio of 90% or more (almost completely withered)) | 4 (Herbicidal ratio of 70% or more and less than 90%) | 3 (Herbicidal ratio of 40% or more and less than 70%) | 5 (Herbicidal ratio of 90% or more (almost completely withered)) | 3 (Herbicidal ratio of 40% or more and less than 70%) | 5 (Herbicidal ratio of 90% or more (almost completely withered)) | 5 (Herbicidal ratio of 90% or more (almost completely withered)) | 3 (Herbicidal ratio of 40% or more and less than 70%) | 5 (Herbicidal ratio of 90% or more (almost completely withered)) | 5 (Herbicidal ratio of 90% or more (almost completely withered)) | 4 (Herbicidal ratio of 70% or more and less than 90%) | 5 (Herbicidal ratio of 90% or more (almost completely withered)) | 2 (Herbicidal ratio of 20% or more and less than 40%) | 4 (Herbicidal ratio of 70% or more and less than 90%) | A: Echinochloa oryzicola Vasing. (herbicidal effect grade) [5]: 5 (Herbicidal ratio of 90% or more (almost completely withered)); C: Monochoria vaginalis (herbicidal effect grade) (Monochoria vaginalis): 4 (Herbicidal ratio of 70% or more and less than 90%); B: Scirpus juncoides (herbicidal effect grade) (Scirpus juncoides): 5 (Herbicidal ratio of 90% or more (almost completely withered)) |
| COc1ccc(-c2nnc3c(C(=O)Nc4nnnn4C)ccc(C(F)(F)F)n23)cc1 [2-011] | 2 (Herbicidal ratio of 20% or more and less than 40%) | 1 (Herbicidal ratio of 5% or more and less than 20%) | 4 (Herbicidal ratio of 70% or more and less than 90%) | 1 (Herbicidal ratio of 5% or more and less than 20%) | 5 (Herbicidal ratio of 90% or more (almost completely withered)) | 1 (Herbicidal ratio of 5% or more and less than 20%) | 5 (Herbicidal ratio of 90% or more (almost completely withered)) | 3 (Herbicidal ratio of 40% or more and less than 70%) | 3 (Herbicidal ratio of 40% or more and less than 70%) | 5 (Herbicidal ratio of 90% or more (almost completely withered)) | 3 (Herbicidal ratio of 40% or more and less than 70%) | 5 (Herbicidal ratio of 90% or more (almost completely withered)) | 5 (Herbicidal ratio of 90% or more (almost completely withered)) | 2 (Herbicidal ratio of 20% or more and less than 40%) | 5 (Herbicidal ratio of 90% or more (almost completely withered)) | 5 (Herbicidal ratio of 90% or more (almost completely withered)) | 3 (Herbicidal ratio of 40% or more and less than 70%) | 5 (Herbicidal ratio of 90% or more (almost completely withered)) | 3 (Herbicidal ratio of 40% or more and less than 70%) | 5 (Herbicidal ratio of 90% or more (almost completely withered)) | A: Echinochloa oryzicola Vasing. (herbicidal effect grade) [5]: 5 (Herbicidal ratio of 90% or more (almost completely withered)); C: Monochoria vaginalis (herbicidal effect grade) (Monochoria vaginalis): 5 (Herbicidal ratio of 90% or more (almost completely withered)); B: Scirpus juncoides (herbicidal effect grade) (Scirpus juncoides): 5 (Herbicidal ratio of 90% or more (almost completely withered)) |
| Cn1nnnc1NC(=O)c1ccc(C(F)(F)F)n2c(-c3ccc(Cl)cc3)nnc12 [2-012] | 1 (Herbicidal ratio of 5% or more and less than 20%) | 4 (Herbicidal ratio of 70% or more and less than 90%) | 4 (Herbicidal ratio of 70% or more and less than 90%) | 3 (Herbicidal ratio of 40% or more and less than 70%) | 5 (Herbicidal ratio of 90% or more (almost completely withered)) | 4 (Herbicidal ratio of 70% or more and less than 90%) | 5 (Herbicidal ratio of 90% or more (almost completely withered)) | 4 (Herbicidal ratio of 70% or more and less than 90%) | 2 (Herbicidal ratio of 20% or more and less than 40%) | 5 (Herbicidal ratio of 90% or more (almost completely withered)) | 1 (Herbicidal ratio of 5% or more and less than 20%) | 4 (Herbicidal ratio of 70% or more and less than 90%) | 4 (Herbicidal ratio of 70% or more and less than 90%) | 2 (Herbicidal ratio of 20% or more and less than 40%) | 5 (Herbicidal ratio of 90% or more (almost completely withered)) | 5 (Herbicidal ratio of 90% or more (almost completely withered)) | 3 (Herbicidal ratio of 40% or more and less than 70%) | 5 (Herbicidal ratio of 90% or more (almost completely withered)) | 2 (Herbicidal ratio of 20% or more and less than 40%) | 4 (Herbicidal ratio of 70% or more and less than 90%) | A: Echinochloa oryzicola Vasing. (herbicidal effect grade) [5]: 5 (Herbicidal ratio of 90% or more (almost completely withered)); C: Monochoria vaginalis (herbicidal effect grade) (Monochoria vaginalis): 3 (Herbicidal ratio of 40% or more and less than 70%); B: Scirpus juncoides (herbicidal effect grade) (Scirpus juncoides): 4 (Herbicidal ratio of 70% or more and less than 90%) |
